Assay results as given in patent publication US20040235939A1, “Synthesis of peloruside a and analogs thereof for use as antitumor agents” (priority 2003, published 2004).
Like-named read-outs stand apart in the source and are kept apart here.

Assays:
SK-MEL-28 = assay: SRB cytotoxicity assay, SK-MEL-28; type: cell-based; conditions: Homo sapiens, SK-MEL-28, Melanoma, read-out: GI50
Experimental: (§1) Cells were treated on Days 1, 3, 5, and 7 with 5 μL of media, vehicle, or drug. Peloruside A was resuspended in 0.1% DMSO and added to wells to a final concentration of 0.01, 0.1, 1, 10 or 100 nM. Taxol® (Sigma-Aldrich) was resuspended in 0.1% ethanol and added to cells to a final concentration of 0.1, 1, 10, 100, or 1000 nM.
(§2) The amount of surviving cells was measured using the sulforhodamine B (SRB) assay as previously described (Skehan et al., New colorimetric cytotoxicity assay for anticancer-drug screening. J. Natl. Cancer Inst., 1990. 82(13): p. 1107-12). Cells were fixed on Days 5, 7, and 9 (representing 4, 6, and 8 days of exposure to drug or control, respectively) with 50% (w/v) trichloroacetic acid for 1 hour at 4° C., rinsed thoroughly with water, and dried overnight. The dried cells were stained with 4% sulforhodamine B in 1% acetic acid, rinsed thoroughly and dried overnight. The bound dye was resuspended in 10 mM Tris and the absorbance was read at 492 nm. Percent growth inhibition (GI) was calculated as follows: %GI=(1−(absorbance sample/absorbance vehicle))×100. The absorbance value for each drug concentration and control represents the average of 6 replicates. The %GI was plotted against the log[drug] to generate the growth curves. The concentration of drug required to inhibit growth by 50% (GI50) was calculated for each time point.

Hep-G2 = assay: SRB cytotoxicity assay, Hep-G2; type: cell-based; conditions: Homo sapiens, Hep G2, Liver, read-out: GI50
Experimental: as §1, §2

SK-HEP-1 = assay: SRB cytotoxicity assay, SK-HEP-1; type: cell-based; conditions: Homo sapiens, SK-HEP-1, Liver, read-out: GI50
Experimental: as §1, §2

NCI-H1395 = assay: SRB cytotoxicity assay, NCI-H1395; type: cell-based, human; conditions: NCl-H1395, Lung
Experimental: as §1, §2

SK-OV-3 = assay: SRB cytotoxicity assay, SK-OV-3; type: cell-based; conditions: Homo sapiens, SK-OV-3, Ovarian, read-out: GI50
Experimental: as §1, §2

MDA-MB-231 = assay: SRB cytotoxicity assay, MDA-MB-231; type: cell-based; conditions: Homo sapiens, MB-MDA-231, Breast, read-out: GI50
Experimental: as §1, §2

ptx10 cells = assay: Cell Titer-Glo cell viability, Taxol-resistant ptx10 cells; conditions: Homo sapiens, PTX10, 48 h, read-out: concentration to reduce cell viability to approximately 50%
Experimental: (§3) These cell lines have specific amino acid mutations in tubulin that prevent Taxol®-binding. […] Synthetic (+)-Peloruside A was used for the present example.
(§4) 1A9, ptx10 and ptx22 cells were plated in 96-well plates to approximately 50% confluency. On the next day, Taxol® or Peloruside A was added to each well and incubated for 48 hours. A final concentration of 1, 2, 3, 4, 5, 8, 10, 20, 30, 50, 100, 300, 500, or 1000 nM of Taxol® was used. A final concentration of 10, 20, 30, 40, 50 or 70 nM of Peloruside A was used. Cell viability was measured using the Cell Titer-Glo Luminescent Cell Viability Assay (Promega). FIGS. 80-82 show bar graphs of cell viability at various concentrations of Peloruside A and Taxol®.

SK-MEL-5 = assay: SRB cytotoxicity assay, SK-MEL-5; type: cell-based; conditions: Homo sapiens, SK-MEL-5, Melanoma, read-out: GI50
Experimental: as §1, §2

[1] = system: BSC-1 (Monkey Kidney epithelial) cells; assay: Immunofluorescent staining of tubulin in BSC-1 cells; type: cell-based; conditions: 200 nM of Taxol® or 50 nM of Peloruside A
DU-145 = assay: SRB cytotoxicity assay, DU-145; type: cell-based; conditions: Homo sapiens, DU-145, Prostate, read-out: GI50
Experimental: as §1, §2

NCI-H23 = assay: SRB cytotoxicity assay, NCI-H23; type: cell-based; conditions: Homo sapiens, NCl-H23, Lung, read-out: GI50
Experimental: as §1, §2

Mia PaCa-2 = assay: SRB cytotoxicity assay, Mia PaCa-2; type: cell-based; conditions: Homo sapiens, Mia PaCa-2, Pancreas, read-out: GI50
Experimental: as §1, §2

ptx22 cells = assay: Cell Titer-Glo cell viability, Taxol-resistant ptx22 cells; conditions: Homo sapiens, 48 h, read-out: concentration to reduce cell viability to approximately 50%
Experimental: as §3, §4

HCT-116 = assay: SRB cytotoxicity assay, HCT-116; type: cell-based; conditions: Homo sapiens, HCT-116, Colon, read-out: GI50
Experimental: as §1, §2

NCI-H2887 = assay: SRB cytotoxicity assay, NCI-H2887; type: cell-based, human; conditions: NCl-H2887, Lung
Experimental: as §1, §2

HCT-15 = assay: SRB cytotoxicity assay, HCT-15; type: cell-based; conditions: Homo sapiens, HCT-15, Colon, read-out: GI50
Experimental: as §1, §2

Capan-1 = assay: SRB cytotoxicity assay, Capan-1; type: cell-based; conditions: Homo sapiens, Capan-1, Pancreas, read-out: GI50
Experimental: as §1, §2

LoVo = assay: SRB cytotoxicity assay, LoVo; type: cell-based; conditions: Homo sapiens, Colon, read-out: GI50
Experimental: as §1, §2

PC-3 = assay: SRB cytotoxicity assay, PC-3; type: cell-based; conditions: Homo sapiens, PC-3, Prostate, read-out: GI50
Experimental: as §1, §2

A498 = assay: SRB cytotoxicity assay, A498; type: cell-based; conditions: Homo sapiens, A498, Renal, read-out: GI50
Experimental: as §1, §2

BT-549 = assay: SRB cytotoxicity assay, BT-549; type: cell-based; conditions: Homo sapiens, BT-549, Breast, read-out: GI50
Experimental: as §1, §2

Compound `CC(=O)O[C@H]1C(=O)[C@@]2(C)[C@H]([C@H](OC(=O)c3ccccc3)[C@]3(O)C[C@H](OC(=O)[C@H](O)[C@@H](NC(=O)c4ccccc4)c4ccccc4)C(C)=C1C3(C)C)[C@]1(OC(C)=O)CO[C@@H]1C[C@@H]2O` [Paclitaxel, paclitaxel, reference compound] has a GI50 (SK-MEL-28; 96 h, 4 Days) of 0.76 nM, a GI50 (SK-MEL-28; 144 h, 6 Days) of 0.2 nM and a GI50 (SK-MEL-28; 192 h, 8 Days) of 0.01 nM. It also gave a GI50 (Hep-G2; HepG2, 96 h, 4 Days) of 2.82 nM, a GI50 (Hep-G2; HepG2, 144 h, 6 Days) of 0.47 nM and a GI50 (Hep-G2; HepG2, 192 h, 8 Days) of 0.63 nM. For the same compound, the GI50 (SK-HEP-1; SK-HEP1, 96 h, 4 Days) was 5.6 nM, the GI50 (SK-HEP-1; SK-HEP1, 144 h, 6 Days) was 2.85 nM and the GI50 (SK-HEP-1; SK-HEP1, 192 h, 8 Days) was 0.45 nM. For the same compound, the GI50 (NCI-H1395; Homo sapiens, NCI-H1395, 144 h, 6 Days, read-out: GI50) was 6.81 nM, the GI50 (NCI-H1395; Homo sapiens, NCI-H1395, 192 h, 8 Days, read-out: GI50) was 5.27 nM and the GI50 (NCI-H1395; 4 Days) was 4 Days: Resistant. It also gave a GI50 (SK-OV-3; 144 h, 6 Days) of 2.21 nM, a GI50 (SK-OV-3; 192 h, 8 Days) of 1.07 nM and a GI50 (MDA-MB-231; MDA-MB-231, 144 h, 6 Days) of 0.09 nM. The GI50 (MDA-MB-231; MDA-MB-231, 192 h, 8 Days) was 0.01 nM, the IC50 (ptx10 cells) was > 100 nM and the GI50 (SK-MEL-5; 96 h, 4 Days) was 0.82 nM. The GI50 (SK-MEL-5; 144 h, 6 Days) was 1 nM, the GI50 (SK-MEL-5; 192 h, 8 Days) was 0.27 nM and the “formation of a bipolar spindle” value [1] was “the bipolar spindle does not form”. The GI50 (DU-145; 96 h, 4 Days) was 0.54 nM, the GI50 (DU-145; 144 h, 6 Days) was 0.53 nM and the GI50 (DU-145; 192 h, 8 Days) was 0.49 nM. For the same compound, the GI50 (NCI-H23; NCI-H23, 96 h, 4 Days) was 1 nM, the GI50 (NCI-H23; NCI-H23, 144 h, 6 Days) was 1.12 nM and the GI50 (NCI-H23; NCI-H23, 192 h, 8 Days) was 0.18 nM. The GI50 (Mia PaCa-2; 96 h, 4 Days) was 0.73 nM, the GI50 (Mia PaCa-2; 144 h, 6 Days) was 0.53 nM and the GI50 (Mia PaCa-2; 192 h, 8 Days) was 0.27 nM. For the same compound, the IC50 (ptx22 cells) was > 100 nM, the GI50 (HCT-116; 96 h, 4 Days) was 1 nM and the GI50 (HCT-116; 144 h, 6 Days) was 0.58 nM. For the same compound, the GI50 (HCT-116; 192 h, 8 Days) was 0.3 nM, the GI50 (NCI-H2887; Homo sapiens, NCI-H2887, 144 h, 6 Days, read-out: GI50) was 643 nM and the GI50 (NCI-H2887; Homo sapiens, NCI-H2887, 192 h, 8 Days, read-out: GI50) was 6.16 nM. For the same compound, the GI50 (NCI-H2887; 4 Days) was 4 Days: Resistant, the GI50 (HCT-15; 96 h, 4 Days) was 49.1 nM and the GI50 (HCT-15; 144 h, 6 Days) was 24 nM. It also gave a GI50 (HCT-15; 192 h, 8 Days) of 26.7 nM, a GI50 (Capan-1; 96 h, 4 Days) of 5.68 nM and a GI50 (Capan-1; 144 h, 6 Days) of 0.91 nM. For the same compound, the GI50 (Capan-1; 192 h, 8 Days) was 1.43 nM, the GI50 (LoVo; 96 h, 4 Days) was 1.91 nM and the GI50 (LoVo; 144 h, 6 Days) was 1.95 nM. The GI50 (LoVo; 192 h, 8 Days) was 3.92 nM, the GI50 (PC-3; 96 h, 4 Days) was 0.78 nM and the GI50 (PC-3; 144 h, 6 Days) was 0.47 nM. It also gave a GI50 (PC-3; 192 h, 8 Days) of 0.27 nM, a GI50 (A498; 96 h, 4 Days) of 46.1 nM and a GI50 (A498; 144 h, 6 Days) of 9.75 nM. The GI50 (A498; 192 h, 8 Days) was 7.57 nM, the GI50 (BT-549; 96 h, 4 Days) was 1.76 nM and the GI50 (BT-549; 144 h, 6 Days) was 1.2 nM. The GI50 (BT-549; 192 h, 8 Days) was 0.18 nM.
